Laboratory results: paper PMC6630832, “3-Vinylazetidin-2-Ones: Synthesis, Antiproliferative and Tubulin Destabilizing Activity in MCF-7 and MDA-MB-231 Breast Cancer Cells” (Pharmaceuticals, 2019)
Where “and” joins values, the source holds several entries; their conditions need not be identical. Identical values can stand only once. Like-named read-outs stand apart in the source and are kept apart here.

Columns and labels:
[1] = system: MCF-7 cells; experiment: Lactate dehydrogenase (LDH) assay for cytotoxicity; assay type: cell-based; conditions: Homo sapiens, MCF7, 72 h, read-out: cell death (LDH assay)
Procedure: Cytotoxicity was determined using the CytoTox 96 non-radioactive cytotoxicity assay (Promega Corporation; 2800 Woods Hollow Road, Madison, WI, USA) following the manufacturer’s protocol. Briefly, MCF-7 cells were seeded in 96-well plates, incubated for 24 hr and then treated with test compounds (7d, 7h, 7i, 7q, 7r, 7u, 7t, 10d, 10f, 12) as described in the cell viability assay above. After 72 h, 20 μL of ‘lysis solution (10X)’ was added to control wells and the plate was incubated for a further 1 hr to ensure 100% death. 50 μL of supernatant was carefully removed from each well and transferred to a new 96-well plate. 50 μL of reconstituted ‘substrate mix’ was added and the plate was placed in the dark at room temperature for 30 min. After this period, 50 μL of ‘stop solution’ was added to each well and the absorbance was read at a wavelength of 490 nm using a Dynatech MR5000 plate reader. The percentage cell death at 10 μM was calculated.

[2] = target: T1, purified bovine tubulin (Bos taurus, UniProt P81947+Q6B856); experiment: Tubulin polymerization assay; assay type: biochemical; conditions: for vmax of tubulin polymerization: absorbance at 340 nm, 37 °C
T1 construct: Purified (>99%) bovine brain tubulin (3 mg/mL); purchased Cytoskeleton Inc. BK006; host or cells: bovine brain (tissue-purified)
T1 sequence (Q6B856 whole entry): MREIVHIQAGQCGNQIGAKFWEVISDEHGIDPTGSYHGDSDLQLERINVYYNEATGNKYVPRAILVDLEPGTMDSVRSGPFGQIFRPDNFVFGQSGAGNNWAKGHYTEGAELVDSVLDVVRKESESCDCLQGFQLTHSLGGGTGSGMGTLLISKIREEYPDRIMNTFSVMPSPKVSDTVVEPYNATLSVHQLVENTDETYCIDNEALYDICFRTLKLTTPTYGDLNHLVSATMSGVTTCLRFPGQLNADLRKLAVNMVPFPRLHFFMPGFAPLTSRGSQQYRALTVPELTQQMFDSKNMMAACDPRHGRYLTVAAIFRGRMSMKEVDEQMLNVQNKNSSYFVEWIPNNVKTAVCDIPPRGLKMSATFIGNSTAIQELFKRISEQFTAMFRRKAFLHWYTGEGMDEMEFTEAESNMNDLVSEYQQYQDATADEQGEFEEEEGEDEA
T1 sequence (P81947 whole entry): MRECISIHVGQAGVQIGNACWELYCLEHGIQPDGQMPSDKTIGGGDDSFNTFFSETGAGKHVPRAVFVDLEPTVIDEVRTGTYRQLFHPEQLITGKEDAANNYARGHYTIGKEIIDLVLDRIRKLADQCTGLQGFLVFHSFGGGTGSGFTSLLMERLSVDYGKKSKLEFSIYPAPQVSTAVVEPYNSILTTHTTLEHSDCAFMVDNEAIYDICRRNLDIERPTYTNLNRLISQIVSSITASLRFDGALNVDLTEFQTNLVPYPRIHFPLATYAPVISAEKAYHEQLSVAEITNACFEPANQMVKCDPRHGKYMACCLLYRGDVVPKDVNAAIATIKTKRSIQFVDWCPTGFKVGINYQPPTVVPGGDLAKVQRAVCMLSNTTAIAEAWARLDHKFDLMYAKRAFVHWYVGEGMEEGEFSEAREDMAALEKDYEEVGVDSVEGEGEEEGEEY
Procedure: The assembly of purified bovine tubulin was monitored using a kit, BK006, purchased from Cytoskeleton Inc., 1830 S Acoma St, Denver, CO, 80223, USA.. The assay was carried out in accordance with the manufacturer’s instructions in the tubulin polymerisation assay kit manual using the standard assay conditions. The values reported represent the average values from two independent assays. Purified (>99%) bovine brain tubulin (3 mg/mL) in a buffer consisting of 80 mM PIPES (pH 6.9), 0.5 mM EGTA, 2 mM MgCl2, 1 mM GTP and 10% glycerol was incubated at 37 °C in the presence of either vehicle (2% (v/v) ddH2O) or compounds 7h, 7i, 7s, 7t (initially 10 µM in EtOH); CA-4 and Paclitaxel were used as controls. Light is scattered proportionally to the concentration of polymerised microtubules in the assay. Therefore, tubulin assembly was monitored turbidimetrically at 340 nm at 37 °C in a Spectramax 340 PC spectrophotometer (Molecular Devices, 3860 N 1st St, San Jose, CA, USA). The absorbance was measured at 30 s intervals for 60 min.

[3] = system: M14; experiment: NCI60 screen (SRB), Melanoma; assay type: cell-based; conditions: Homo sapiens
[4] = system: MALME-3M; experiment: NCI60 screen (SRB), Melanoma; assay type: cell-based; conditions: Homo sapiens
[5] = system: SF295; experiment: NCI60 screen (SRB), CNS Cancer; assay type: cell-based; conditions: Homo sapiens, SF-295
[6] = system: OVCAR-3; experiment: NCI60 screen (SRB), Ovarian cancer; assay type: cell-based; conditions: Homo sapiens
[7] = system: MDA-MB-435; experiment: NCI60 screen (SRB), Melanoma; assay type: cell-based; conditions: Homo sapiens
[8] = system: SK-MEL-28; experiment: NCI60 screen (SRB), Melanoma; assay type: cell-based; conditions: Homo sapiens
[9] = system: OVCAR-5; experiment: NCI60 screen (SRB), Ovarian cancer; assay type: cell-based; conditions: Homo sapiens
[10] = system: SK-MEL-2; experiment: NCI60 screen (SRB), Melanoma; assay type: cell-based; conditions: Homo sapiens
[11] = system: RXF 393; experiment: NCI60 screen (SRB), Renal cancer; assay type: cell-based; conditions: Homo sapiens
[12] = Plasma stability study; assay type: in vitro ADME, human; parameters: half-life: dose or concentration left out as unconfirmed; conditions: 37 °C; for remaining after 6 h: human plasma
Procedure: Analytical high-performance liquid chromatography (HPLC) stability studies were performed using a Symmetry® column (C18, 5 µm, 4.6 × 150 mm), a Waters 2487 Dual Wavelength Absorbance detector, a Waters 1525 binary HPLC pump and a Waters 717 plus Autosampler (Waters Corporation, 34 Maple St, Milford, MA, USA). Samples were detected at wavelength of 254 nm. All samples were analysed using acetonitrile (80%) and water (20%) as the mobile phase over 10 min and a flow rate of 1 mL/min. Stock solutions were prepared by dissolving 5 mg of compound 7s, 17b and 17c in 10 mL of mobile phase. Phosphate buffers at the desired pH values (4, 7.4 and 9) were prepared in accordance with the British Pharmacopoeia monograph 2015. 30 µL of stock solution was diluted with 1 mL of appropriate buffer, shaken and injected immediately. Samples were withdrawn and analysed at time intervals of t = 0 min, 5 min, 30 min, 60 min, 90 min, 120 min, 24 h and 48 h. Plasma stability studies: 360 µL stock solution of compounds 7s, 17b and 17c were transferred to buffered plasma (plasma: buffer = 1:9, 4 mL in total) at 37 °C in screw cap container. Immediately a 250 µL aliquot was withdrawn and added to the Eppendorf tube containing 500 µL ZnSO4.7H2O solution (2% w/v ZnSO4 solution in acetonitrile: water, 1:1). The samples were then centrifuged at 10,000 rpm for 3 min and filtered through a 0.2-micron filter and injected according to the HPLC conditions listed above. Further samples were taken in the same manner every 1 h thereafter up to 6 h. A final sample was taken after 24 h. Whole blood stability studies. A 360 µL aliquot of stock solution of compounds 17b and 17c in acetonitrile was added in whole blood (4 mL, treated with 2% sodium citrate) at 37 °C and 300 µL aliquots were withdrawn at approptiate intervals. Samples were transferred to 1.5 mL Eppenddorf tubes containing 1 mL of ZnSO4. 7H2O solution (2% w/v ZnSO4 solution in acetonitrile: water, 1:1), vortexed and then centrifuged for 5 min at 14,000 rpm. The sample filtered through a 0.2-micron filter and injected according to the HPLC conditions listed above.

[13] = system: UACC-62; experiment: NCI60 screen (SRB), Melanoma; assay type: cell-based; conditions: Homo sapiens
[14] = system: MOLT-4; experiment: NCI60 screen (SRB), Leukemia; assay type: cell-based; conditions: Homo sapiens
[15] = NCI60 Melanoma cell line M14, read-out: GI50
[16] = NCI60 Melanoma cell line MALME-3M, read-out: GI50
[17] = NCI60 CNS Cancer cell line SF295, read-out: GI50
[18] = NCI60 Ovarian cancer cell line OVCAR-3, read-out: GI50
[19] = NCI60 Melanoma cell line MDA-MB-435, read-out: GI50
[20] = NCI60 Melanoma cell line SK-MEL-28, read-out: GI50
[21] = NCI60 Ovarian cancer cell line OVCAR-5, read-out: GI50
[22] = NCI60 Melanoma cell line SK-MEL-2, read-out: GI50
[23] = NCI60 Renal cancer cell line RXF 393, read-out: GI50
[24] = human, buffered plasma (plasma:buffer 1:9), plasma, read-out: half-life (t½)
[25] = 10 μM, with reference to ethanol control
[26] = NCI60 Melanoma cell line UACC-62, read-out: GI50
[27] = NCI60 Leukemia cell line MOLT-4, read-out: GI50

COc1ccc(/C=C\c2cc(OC)c(OC)c(OC)c2)cc1O [CA-4, Combretastatin A-4, reference compound]
cytotoxicity at 10 µM [1]: 11.8%
fold reduction in vmax of tubulin polymerization [2]: 5.28 fold

C=CC1C(=O)N(c2cc(OC)c(OC)c(OC)c2)C1c1ccc(OC)c(O)c1 (centres unmarked) [Compound 7s, 4-[3-Hydroxy-4-methoxyphenyl]-1-(3,4,5-trimethoxyphenyl)-3-vinylazetidin-2-one]
GI50 [3, 15]: < 10 nM
GI50 [4, 16]: 28.3 nM
GI50 [5, 17]: 271 nM
GI50 [6, 18]: < 10 nM
GI50 [7, 19]: < 10 nM
GI50 [8, 20]: < 10 nM
cytotoxicity at 10 µM [1]: 16.1%
GI50 [9, 21]: 45.3 nM
GI50 [10, 22]: 31.4 nM
GI50 [11, 23]: 13.6 nM
half-life at 41.3 µg/mL [12, 24]: > 24 h
fold reduction in vmax of tubulin polymerization ([2]; 1 μM): 2.61 fold
fold reduction in vmax of tubulin polymerization ([2]; 5 μM): 7.31 fold
fold reduction in vmax of tubulin polymerization [2, 25]: 8.7 fold and 8.70 fold
IC50 ([2]; calculated from 1, 5 and 10 μM, read-out: IC50 for the inhibition of tubulin polymerization): 1370 nM
GI50 [13, 26]: < 10 nM

CCC1C(=O)N(c2cc(OC)c(OC)c(OC)c2)C1c1ccc(OC)c(OP(=O)(O)O)c1 (centres unmarked) [Compound 17c, 5-(3-Ethyl-1-(3,4,5-trimethoxyphenyl)-4-oxoazetidin-2-yl)-2-methoxyphenyl dihydrogen phosphate]
GI50 [14, 27]: 47.7 nM
GI50 [3, 15]: 31.7 nM
GI50 [4, 16]: 71400 nM
GI50 [5, 17]: 24.3 nM
GI50 [6, 18]: 36.8 nM
GI50 [7, 19]: 12.8 nM
GI50 [8, 20]: 7460 nM
GI50 [9, 21]: 444 nM
GI50 [10, 22]: 54.4 nM
GI50 [11, 23]: 36.9 nM
remaining after 6 h [12]: 92%
half-life [12, 24]: > 24 h
GI50 [13, 26]: 34.8 nM

C=CC1C(=O)N(c2cc(OC)c(OC)c(OC)c2)C1c1ccc(OC)c(OP(=O)(O)O)c1 (centres unmarked) [Compound 17b, 2-Methoxy-5-(1-(3,4,5-trimethoxyphenyl)-4-oxo-3-vinylazetidin-2-yl)phenyl dihydrogen phosphate]
GI50 [14, 27]: 129 nM
GI50 [3, 15]: 748 nM
GI50 [4, 16]: 54500 nM
GI50 [5, 17]: 29.1 nM
GI50 [6, 18]: 49.7 nM
GI50 [7, 19]: 21 nM
GI50 [8, 20]: 97.7 nM
GI50 [9, 21]: 3570 nM
GI50 [10, 22]: 85.8 nM
GI50 [11, 23]: 64.8 nM
remaining after 6 h [12]: 94%
half-life [12, 24]: > 24 h
GI50 [13, 26]: 51.1 nM

C=CC1C(=O)N(c2cc(OC)c(OC)c(OC)c2)C1c1ccc(OC)c(N)c1 (centres unmarked) [Compound 7t, 4-(3-Amino-4-methoxyphenyl)-1-(3,4,5-trimethoxyphenyl)-3-vinylazetidin-2-one]
GI50 ([14]; MOLT-4): 40 nM
GI50 ([3]; M14): 27.2 nM
GI50 ([4]; Malme-3M): > 100000 nM
GI50 [5]: 21.3 nM
GI50 ([6]; OVCAR-3): 18.1 nM
GI50 ([7]; MDA-MB-435): < 10 nM
GI50 ([8]; SK-MEL-28): 18.1 nM
cytotoxicity at 10 µM [1]: 25%
GI50 ([9]; OVCAR-5): 44.6 nM
GI50 ([10]; SK-MEL-2): 65.6 nM
GI50 ([11]; RXF 393): 36.6 nM
vmax of tubulin polymerization ([2]; 10 μM): 0.92 mOD/min
fold reduction in vmax of tubulin polymerization [2, 25]: 9.15 fold
GI50 ([13]; UACC-62): 12300 nM

C=CC1C(=O)N(c2cc(OC)c(OC)c(OC)c2)C1c1ccc(OC)cc1 (centres unmarked) [Compound 7h, 4-(4-Methoxyphenyl)-1-(3,4,5-trimethoxyphenyl)-3-vinylazetidin-2-one]
GI50 ([3]; M14): 25.2 nM
GI50 ([4]; Malme-3M): 73 nM
GI50 [5]: 35.8 nM
GI50 ([6]; OVCAR-3): 25.1 nM
GI50 ([7]; MDA-MB-435): 22.6 nM
GI50 ([8]; SK-MEL-28): 59.9 nM
cytotoxicity at 10 µM [1]: 2.4%
GI50 ([9]; OVCAR-5): 58.7 nM
GI50 ([10]; SK-MEL-2): 191 nM
GI50 ([11]; RXF 393): 28.7 nM
vmax of tubulin polymerization ([2]; 10 μM): 3.43 mOD/min
fold reduction in vmax of tubulin polymerization [2, 25]: 2.45 fold
GI50 ([13]; UACC-62): 50.2 nM
